# Assay results published in patent US20260183432A1, “IMAGING AGENTS FOR DETECTING CD206+ MACROPHAGES” (THE GENERAL HOSPITAL CORPORATION, priority 2022, published 2026).
# “Also recorded” adds a separate entry of the source. Read-outs that look alike come from different tables or passages of the source.
# Experiments:
# [1] = in vitro relaxivity (r1), Bruker Minispect; format: physicochemical
# Procedure: Relaxation time (T1) of Mann2-DTPA-Gd/MannGdFish at concentrations of 0.1, 0.2, 0.3, 0.5, 0.6, 0.75, and 1 mM in PBS was measured on the Bruker Minispect (Bruker Analytics, MA) at 0.47 T (20 MHz) at 40° C. The slope value of the linear function of 1/T1 (s) to their corresponding concentrations is defined as the relaxivity (n=3 for each concentration).
# [2] = test system: M1/M2 macrophages and HEK293 cells; test: ICP-MS of gadolinium on cells incubated with agent; format: cell-based
# Procedure: M1 and M2 differentiated macrophages were incubated with 1 mM of Mann2-DTPA-Gd for 1 h at 4° C. After washing with PBS (×3), cells were collected, digested with nitric acid (70%, 200 μL) overnight and subjected to ICP-MS to detect the amount of Gd.
# M1 and M2 polarized differentiation. Raw 264.7 cells (Passage 8 from the cell core of center for Systems Biology at Massachusetts General Hospital, Boston) in 10 mL petri dishes were cultured with Dulbecco's modified eagle medium with high glucose (DMEM, Thermo Fisher Scientific, NY, USA) containing 10% of fetal bovine serum (FBS, Sigma-Aldrich, MO, USA) and 0.5% streptomycin/penicillin (Cellgro) until reaching 80% of confluency. Then differentiating media containing IFN-gamma (100 ng/ml the above medium) for M1 polarization and IL-4 (100 ng/mL) for M2 polarization were added to the dishes, respectively. After 24 h, the M1 and M2 polarized macrophages were ready for the following experiments.
# CD206+ macrophages [3] = test: MR imaging in mouse model of cutaneous wound healing; format: in vivo
# Procedure: Eight-to nine-week-old C57BL/6J female mice were used for MRI of wound healing and glioma (Jackson Laboratory, ME). The generation of wound healing and glioma is described in Examples 14 and 15, respectively. The mice with subcutaneous wounds were imaged on days 1, 4, and 7 longitudinally or on day 7. Mice with glioma were imaged on the third week. All the mice were imaged pre- and at 0, 15, 30, 45 and 60 min after 0.3 mmol/kg of Mann2-DTPA-Gd or MannGdFish was administered intravenously via a tail vein using serial T1 rapid acquisition with relaxation enhancement (RARE) sequence (TR: 935.77 ms, TE: 13.59 ms, averages: 12, rare factor: 4, 256×256×48 matrix size, 0.156×0.156×1 mm^3 voxel size) with chemical fat suppression using a Hermitian pulse shape with an 8.253 ms pulse and 701.19 Hz bandwidth 3.5 ppm down from the water peak and respiratory gating on a 4.7 T small animal MR scanner (Bruker, Cambridge, MA) with a 3 cm quadrature volume coil (Rapid MR International, Germany). Regions of interest (ROIs) were drawn and the contrast-to-noise ratios (CNRs, CNRpre-contrast subtracted) were calculated by a radiologist with over 20 years of experience blinded to the identity of the imaging agent used and the strain of the mice (n=3 per group).
# Wound healing procedure. Seven-to ten-week-old C57BL/6J female mice (The Jackson Laboratories, ME) and mannose-receptor deficient mice were used in this study. A circular outline on the back of a mouse was made with a 4 mm biopsy punch (Kai Medical, Japan) under anesthesia using isoflurane. Then a full-thickness excisional wound was generated that extended through the subcutaneous tissue. A silicone splint was glued over the wound, anchored with 6-0 nylon sutures, and covered with a transparent occlusive dressing (OpSite). Xylazine/norepinephrine (100 μL) were intraperitoneally injected twice a day for two days and the mice were monitored daily.
# CD206+ TAMs = test: MR imaging of experimental glioma; format: in vivo, mouse; details: third week, 30 and 60 min post-injection
# Procedure: Eight-to nine-week-old C57BL/6J female mice were used for MRI of wound healing and glioma (Jackson Laboratory, ME). The generation of wound healing and glioma is described in Examples 14 and 15, respectively. The mice with subcutaneous wounds were imaged on days 1, 4, and 7 longitudinally or on day 7. Mice with glioma were imaged on the third week. […] Regions of interest (ROIs) were drawn and the contrast-to-noise ratios (CNRs, CNRpre-contrast subtracted) were calculated by a radiologist with over 20 years of experience blinded to the identity of the imaging agent used and the strain of the mice (n=3 per group). […]
# Eight- to nine-week-old C57BL/6J female mice were used in this experiment (Jackson laboratory, ME). […] The mice then were monitored daily for signs of discomfort or neurological symptoms.
# CD206+ macrophages [4] = test: MR imaging in mouse model of cutaneous wound healing; format: in vivo; details: 45-75 min post-injection, wildtype mice
structure (smiles),measurement,setting,value
O=C([O-])CN(CCN(CC(=O)[O-])CC(=O)NC1C(O)OC(CO)C(O)C1O)CCN(CC(=O)[O-])CC(=O)NC1C(O)OC(CO)C(O)C1O.[Gd+3] (stereo not drawn) [Mann2-DTPA-Gd],relaxivity (r1),[1],3.6 mmol⁻¹ s⁻¹
same,relaxivity (r1),"[1]; in PBS, 0.47 T, 40° C.",3.6 mM⁻¹ s⁻¹
same,amount of gadolinium on M2 macrophages versus M1 macrophages and HEK293 cells,[2],much higher than that on M1 macrophages and HEK293 cells; also recorded: markedly higher than that in M1 macrophages and HEK293 cells
same,CNR on day 7 compared to day 4,"CD206+ macrophages [3]; 45 min post-injection, wildtype mouse",about two-fold
same,CNR on day 7 versus days 1 and 4,"CD206+ macrophages [3]; 60 min post-injection, longitudinal imaging",much higher compared to that on days 1 and 4
same,signal intensity / CNR time course,"CD206+ macrophages [3]; mannose receptor-knockout mice, day 7, 0.3 mmol/kg",decreased significantly after 15 min post-injection compared to that in wildtype mice; also recorded: decreased over time after initially peaking at 15 min post-injection
same,contrast-to-noise ratio (CNR) time course,"CD206+ macrophages [3]; wildtype mice, day 7 after wound induction",increasing over time until 45 min post-injection prior to slowly decreasing; also recorded: slow decrease of CNR
same,contrast enhancement of glioma,CD206+ TAMs,Substantial contrast enhancement
same,CNR on day 7 compared to day 4,CD206+ macrophages [4],2- to 3 fold
